The target of experiment [1] is T1, human H3 receptor (Homo sapiens, UniProt Q9Y5N1).
T1 construct: expressed in transfected cells
In words: H3 receptor binding. Particulars: cloned human H3 receptor stably expressed in SK-N-MC cells.

Experiment [2] deals with T2, Rat SERT (Rattus norvegicus, UniProt P31652).
T2 construct: A rat brain without cerebellum (Zivic Laboratories, Inc.—Pittsburgh, Pa.) was homogenized; tissue Zivic Laboratories, Inc; host or cells: rat brain without cerebellum, membrane preparation
The experiment can be described thus: Rat brain SERT [3H]-citalopram binding. Particulars: rat brain membranes, 0.6 nM [3H]-Citalopram, 60 min at 25° C. The protocol: The supernatant was removed and re-centrifuged at 15,000 rpm for 30 min. […] Membranes were incubated with 0.6 nM [^3H]-Citalopram plus/minus test compounds for 60 min at 25° C. and harvested by rapid filtration over GF/C glass fiber filters (pretreated with 0.3% polyethylenimine) followed by four washes with ice-cold buffer.

Experiment [3] deals with T3, human SERT (Homo sapiens, UniProt P31645).
T3 construct: expressed in transfected cells; host or cells: HEK293 membranes
In words: Human SERT 3H-citalopram binding. Particulars: HEK293 membranes expressing the human SERT, rt 1 h. The protocol: Homogenized HEK293 (Human Embryonic Kidney) membranes expressing the human SERT were incubated with ^3H-citalopram (SERT) at rt for 1 h in 50 mM Tris, 120 mM NaCl, 5 mM KCl (pH 7.4). […] The membranes were washed and the radioactivity was counted as above.

Experiment [4] deals with T1, human H3 receptor. The experiment can be described thus: Cyclic AMP accumulation (β-galactosidase reporter). The experiment is classed as cell-based. As for the experimental part:
Sublines of SK—N-MC cells were created that expressed a reporter construct and the human H3 receptor. The reporter gene (β-galactosidase) is under the control of multiple cyclic AMP responsive elements. In 96-well plates, histamine was added directly to the cell media followed 5 min later by an addition of forskolin (5 μM final concentration). When appropriate, antagonists were added 10 min prior to agonist addition. After a 6-h incubation at 37° C., the media was aspirated and the cells washed with 200 μL of phosphate-buffered saline followed by a second aspiration. Cells were lysed with 25 μL 0.1× assay buffer (10 mM Na-phosphate, pH 8, 0.2 mM MgSO4, 0.01 mM MnCl2) and incubated at rt for 10 min. […] Color was developed using 25 μL of 1 mg/mL substrate solution (chlorophenolred β-D galactopyranoside; Roche Molecular Biochemicals, Indianapolis, Ind.).

26 compounds from patent US7767666B2, “Butyl and butynyl benzyl amine compounds” (Janssen Pharmaceutica NV, priority 2006, dated 2010) can be followed below.

T1 sequence (Q9Y5N1 whole entry): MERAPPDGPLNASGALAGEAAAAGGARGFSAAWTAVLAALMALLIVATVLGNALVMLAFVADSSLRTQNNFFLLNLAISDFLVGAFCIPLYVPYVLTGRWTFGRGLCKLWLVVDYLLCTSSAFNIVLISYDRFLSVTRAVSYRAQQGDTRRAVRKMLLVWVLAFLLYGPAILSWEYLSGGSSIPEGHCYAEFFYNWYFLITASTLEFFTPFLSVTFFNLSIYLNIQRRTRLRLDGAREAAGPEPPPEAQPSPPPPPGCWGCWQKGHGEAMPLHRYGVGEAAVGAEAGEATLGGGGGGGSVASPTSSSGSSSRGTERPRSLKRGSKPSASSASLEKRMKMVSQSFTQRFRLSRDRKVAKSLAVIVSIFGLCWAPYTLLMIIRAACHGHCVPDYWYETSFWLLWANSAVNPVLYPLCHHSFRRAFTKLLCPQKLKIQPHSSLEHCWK
T3 sequence (P31645 whole entry): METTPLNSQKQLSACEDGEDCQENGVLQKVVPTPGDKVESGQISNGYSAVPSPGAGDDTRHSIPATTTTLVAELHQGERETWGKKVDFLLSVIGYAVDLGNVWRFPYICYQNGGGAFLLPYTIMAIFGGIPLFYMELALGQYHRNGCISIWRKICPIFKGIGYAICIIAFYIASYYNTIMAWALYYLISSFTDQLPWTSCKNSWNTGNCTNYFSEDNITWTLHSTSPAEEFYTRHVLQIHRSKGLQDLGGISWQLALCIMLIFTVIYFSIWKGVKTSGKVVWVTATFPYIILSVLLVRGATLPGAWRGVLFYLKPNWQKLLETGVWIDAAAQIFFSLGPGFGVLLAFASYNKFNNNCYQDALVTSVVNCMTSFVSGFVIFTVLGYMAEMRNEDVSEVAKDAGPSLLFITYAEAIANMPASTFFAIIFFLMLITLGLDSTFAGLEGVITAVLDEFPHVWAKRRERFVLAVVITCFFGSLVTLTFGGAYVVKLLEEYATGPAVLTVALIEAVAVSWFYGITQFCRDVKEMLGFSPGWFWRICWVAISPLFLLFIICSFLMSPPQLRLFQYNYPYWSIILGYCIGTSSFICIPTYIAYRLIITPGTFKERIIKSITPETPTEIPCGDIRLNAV
T2 sequence (P31652 whole entry): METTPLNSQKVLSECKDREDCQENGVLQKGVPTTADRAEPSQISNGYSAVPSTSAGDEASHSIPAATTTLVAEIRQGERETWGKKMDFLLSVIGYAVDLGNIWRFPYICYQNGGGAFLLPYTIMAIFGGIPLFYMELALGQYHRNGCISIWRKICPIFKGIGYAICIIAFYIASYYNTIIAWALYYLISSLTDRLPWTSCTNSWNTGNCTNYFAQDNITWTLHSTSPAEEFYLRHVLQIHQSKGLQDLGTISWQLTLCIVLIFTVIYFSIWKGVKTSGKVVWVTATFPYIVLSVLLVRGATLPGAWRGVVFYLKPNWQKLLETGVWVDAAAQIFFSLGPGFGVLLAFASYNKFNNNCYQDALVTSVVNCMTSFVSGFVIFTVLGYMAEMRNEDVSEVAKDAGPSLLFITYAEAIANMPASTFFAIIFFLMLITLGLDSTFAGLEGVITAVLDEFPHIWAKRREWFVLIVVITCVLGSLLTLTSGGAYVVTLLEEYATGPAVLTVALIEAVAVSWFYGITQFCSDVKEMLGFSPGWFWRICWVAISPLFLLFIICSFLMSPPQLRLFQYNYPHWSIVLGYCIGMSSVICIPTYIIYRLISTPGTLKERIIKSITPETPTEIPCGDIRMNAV

Usually Ki stands for the dissociation constant of the complex between target and ligand, obtained from inhibition or displacement. Read a low Ki as tighter binding. `Clc1ccc(Oc2ccc(C#CCCN3CCOCC3)cc2CNC2CC2)cc1` [Example 22, [2-(4-Chloro-phenoxy)-5-(4-morpholin-4-yl-but-1-ynyl)-benzyl]-cyclopropyl-amine]: the Ki in experiment [1] turned out to be 10 nM; in experiment [2], 5 nM.
Take `CNCc1cc(C#CCCN2CCC(F)CC2)ccc1Oc1ccc(Cl)c(Cl)c1` [Example 29, {2-(3,4-Dichloro-phenoxy)-5-[4-(4-fluoro-piperidin-1-yl)-but-1-ynyl]-benzyl}-methyl-amine]: the Ki in experiment [3] amounted to 27 nM; in experiment [1] it was 14 nM; in experiment [2] it was 2.1 nM.
Broadly, the pA2 is the negative logarithm of the molar antagonist concentration that doubles the agonist concentration needed for the same response. Take `CNCc1cc(C#CCCN2CCOCC2)ccc1Oc1cccc(Cl)c1` [Example 12, [2-(3-Chloro-phenoxy)-5-(4-morpholin-4-yl-but-1-ynyl)-benzyl]-methyl-amine]: the Ki was found to be 7.3 nM in experiment [3], 3 nM in experiment [1] and 3 nM in experiment [2]. In experiment [4] (SK-N-MC cells expressing human H3 receptor and reporter, histamine agonist, forskolin 5 μM, Schild regression of pEC50 values), this compound returned a pA2 of 8.58.
For the compound `CNCc1cc(C#CCCN2CCN(C3CC3)CC2)ccc1Oc1ccc(SC)cc1` [Example 13, [5-[4-(4-Cyclopropyl-piperazin-1-yl)-but-1-ynyl]-2-(4-methylsulfanyl-phenoxy)-benzyl]-methyl-amine], the Ki in experiment [3] was 3.5 nM; in experiment [1] it was 52 nM; in experiment [2], 2 nM.
In the same order, the values of `CNCc1cc(C#CCCN2CCOCC2)ccc1Oc1ccc(C)nc1` [Example 24, Methyl-[2-(6-methyl-pyridin-3-yloxy)-5-(4-morpholin-4-yl-but-1-ynyl)-benzyl]-amine] are 5 nM, 4 nM and 1.9 nM.
As for `CNCc1cc(C#CCCN2CCOCC2)ccc1Oc1ccccn1` [Example 30, Methyl-[5-(4-morpholin-4-yl-but-1-ynyl)-2-(pyridine-2-yloxy)-benzyl]-amine], in experiment [4] (read-out: pA2 (converted)), the Kb is 3.16 nM. The Ki in experiment [1] turned out to be 6 nM; in experiment [2], 200 nM.
Consider `CNCc1cc(C#CCCN2CCCN(C(C)C)CC2)ccc1Oc1ccc(SC)cc1` [Example 20, [5-[4-(4-Isopropyl-[1,4]diazepan-1-yl)-but-1-ynyl]-2-(4-methylsulfanyl-phenoxy)-benzyl]-methyl-amine], for which the Ki in experiment [3] was determined as 3.6 nM; in experiment [1], 93 nM; in experiment [2], 0.7 nM.
Take `CNCc1cc(C#CCCN(C2CC2)C2CC2)ccc1Oc1ccc(Cl)c(Cl)c1` [Example 17, N,N-Dicyclopropyl-{4-[4-(3,4-dichloro-phenoxy)-3-methylaminomethyl-phenyl]-but-3-ynyl}-amine]: the Ki was 100 nM in experiment [1] and 40 nM in experiment [2].
Consider `CNCc1cc(C#CCCN2CCOCC2)ccc1Oc1ccccc1` [Example 6, Methyl-[5-(4-morpholin-4-yl-but-1-ynyl)-2-phenoxy-benzyl]-amine], for which the Ki turned out to be 30 nM in experiment [3] and 11 nM in experiment [2].
`CNCc1cc(CCCCN2CCSCC2)ccc1Oc1ccc(SC)cc1` [Example 34, Methyl-[2-(4-methylsulfanyl-phenoxy)-5-(4-thiomorpholin-4-yl-butyl)-benzyl]-amine]: the figures for the Ki in experiment [3], in experiment [1] and in experiment [2] were 1.9 nM, 9.7 nM and 0.9 nM, respectively.
In the case of `CSc1ccc(Oc2ccc(C#CCCN3CCCCC3)cc2CN(C)C(=O)OC(C)(C)C)cc1` [Example 35, Methyl-[2-(4-methylsulfanyl-phenoxy)-5-(4-piperidin-1-yl-but-1-ynyl)-benzyl]-carbamic acid tert-butyl ester], the Ki turned out to be 46 nM in experiment [1] and 24 nM in experiment [2].
On to `CNCc1cc(C#CCCN2CCOCC2)ccc1Sc1ccc(Cl)cc1` [Example 31, [2-(4-Chloro-phenylsulfanyl)-5-(4-morpholin-4-yl-but-1-ynyl)-benzyl]-methyl-amine], for which the Ki was 32 nM in experiment [1] and 1 nM in experiment [2].
For `CNCc1cc(CCCCN2CCN(C(C)C)CC2)ccc1Oc1ccc(SC)cc1` [Example 33, [5-[4-(4-Isopropyl-piperazin-1-yl)-butyl]-2-(4-methylsulfanyl-phenoxy)-benzyl]-methyl-amine], the values for the Ki in experiment [3], in experiment [1] and in experiment [2] were 1.4 nM, 5.2 nM and 0.4 nM, respectively.
As to `CNCc1cc(C#CCCN2CCOCC2)ccc1Sc1cc(C(F)(F)F)ccn1` [Example 36, Methyl-[5-(4-morpholin-4-yl-but-1-ynyl)-2-(4-trifluoromethyl-pyridin-2-ylsulfanyl)-benzyl]-amine], the Ki in experiment [1] worked out at 190 nM; in experiment [2], 32 nM.
In the same order, the values of `CNCc1cc(C#CCCN2CCOCC2)ccc1Oc1cccnc1` [Example 21, Methyl-[5-(4-morpholin-4-yl-but-1-ynyl)-2-(pyridine-3-yloxy)-benzyl]-amine] are 2 nM and 7 nM.
In the case of `CNCc1cc(C#CCCN(C)C2CC2)ccc1Oc1ccc(Cl)c(Cl)c1` [Example 18, Cyclopropyl-{4-[4-(3,4-dichloro-phenoxy)-3-methylaminomethyl-phenyl]-but-3-ynyl}-methyl-amine], the inhibition constant Ki amounted to 5.9 nM in experiment [3], 9.7 nM in experiment [1] and 6.4 nM in experiment [2].
As for `CNCc1ccc(C#CCCN2CCOCC2)cc1Oc1ccc(SC)cc1` [Example 37, Methyl-[2-(4-methylsulfanyl-phenoxy)-4-(4-morpholin-4-yl-but-1-ynyl)-benzyl]-amine], the inhibition constant Ki came out at 3.4 nM in experiment [3], 423 nM in experiment [1] and 1.8 nM in experiment [2].
On to `CNCc1cc(C#CCCN2CCN(C(C)C)C(=O)C2)ccc1Oc1ccc(SC)cc1` [Example 25, 1-Isopropyl-4-{4-[3-methylaminomethyl-4-(4-methylsulfanyl-phenoxy)-phenyl]-but-3-ynyl}-piperazin-2-one], for which the figures for the Ki in experiment [3], in experiment [1] and in experiment [2] were 1.2 nM, 1870 nM and 1 nM, respectively.
Take `CNCc1cc(C#CCCN2CCN(C(C)C)CC2)ccc1Oc1ccc(SC)cc1` [Example 10, [5-[4-(4-Isopropyl-piperazin-1-yl)-but-1-ynyl]-2-(4-methylsulfanyl-phenoxy)-benzyl]-methyl-amine]: the Ki in experiment [3] came to 13 nM; in experiment [1], 31 nM; in experiment [2], 0.5 nM.
Take `CNCc1cc(C#CCCNC2CC2)ccc1Oc1ccc(SC)cc1` [Example 14, Cyclopropyl-{4-[3-methylaminomethyl-4-(4-methylsulfanyl-phenoxy)-phenyl]-but-3-ynyl}-amine]: the Ki in experiment [3] was 12 nM; in experiment [1] it was 17 nM; in experiment [2], 0.3 nM.
In the case of `CNCc1cc(C#CCCN2CCSCC2)ccc1Oc1ccc(SC)cc1` [Example 9, Methyl-[2-(4-methylsulfanyl-phenoxy)-5-(4-thiomorpholin-4-yl-but-1-ynyl)-benzyl]-amine], the figures for the Ki in experiment [3], in experiment [1] and in experiment [2] were 2.5 nM, 5.4 nM and 0.9 nM, respectively.
Regarding `CNCc1cc(C#CCCN2CCOCC2)ccc1Oc1ccc(Cl)c(Cl)c1` [Example 1, [2-(3,4-Dichloro-phenoxy)-5-(4-morpholin-4-yl-but-1-ynyl)-benzyl]-methyl-amine], the Ki stood at 1.8 nM in experiment [3], 11 nM in experiment [1] and 2.4 nM in experiment [2].
As to `CNCc1cc(C#CCCN2CCSCC2)ccc1Oc1ccc(Cl)c(Cl)c1` [Example 26, [2-(3,4-Dichloro-phenoxy)-5-(4-thiomorpholin-4-yl-but-1-ynyl)-benzyl]-methyl-amine], the Ki in experiment [3] is 6.7 nM; in experiment [1], 13 nM; in experiment [2], 5.7 nM.
In the case of `CNCc1cc(C#CCCN2CCNC(=O)C2)ccc1Oc1ccc(SC)cc1` [Example 19, 4-{4-[3-Methylaminomethyl-4-(4-methylsulfanyl-phenoxy)-phenyl]-but-3-ynyl}-piperazin-2-one], the Ki in experiment [3] worked out at 1.6 nM; in experiment [1], 864 nM; in experiment [2], 0.4 nM.
The like results for `CNCc1cc(C#CCCNC2CC2)ccc1Oc1ccc(Cl)c(Cl)c1` [Example 15, Cyclopropyl-{4-[4-(3,4-dichloro-phenoxy)-3-methylaminomethyl-phenyl]-but-3-ynyl}-amine] were, in that order, 1.4 nM, 17 nM and 1.8 nM.
In the case of `CNCc1cc(CCCCN2CCN(C3CC3)CC2)ccc1Oc1ccc(SC)cc1` [Example 32, [5-[4-(4-Cyclopropyl-piperazin-1-yl)-butyl]-2-(4-methylsulfanyl-phenoxy)-benzyl]-methyl-amine], the inhibitory constant (Ki) was found to be 2 nM in experiment [3], 4.7 nM in experiment [1] and 0.6 nM in experiment [2].
